# Values of other authors as cited in US6566543B2, “2-arachidonylglycerol (2-AG)-an inhibitor of tumor necrosis factor-α and neuroprotector of brain in closed head injury” (Yissum Research Development Company of The Hebrew …, priority 2000, dated 2003).
# What was measured:
# cannabinoid receptors = settings: previously shown, Ben-Shabat et al., 1998
# TNF-α = settings: astrocytes
# nitric oxide release = settings: astrocytes
SMILES,activity in numerous in vivo and in vitro assays (including binding to the cannabinoid receptors) (cannabinoid receptors),inhibition of TNF-α production (TNF-α),nitric oxide release (nitric oxide release)
"CCCCC/C=C\C/C=C\CCCCCCCC(=O)OC(CO)CO [2-LinoG, 2-linoleoylglycerol]",inactive,–,–
"CCCCCCCCCCCCCCCC(=O)OC(CO)CO [2-PalmG, 2-palmitoylglycerol]",inactive,–,–
"CCCCC/C=C\C/C=C\C/C=C\C/C=C\CCCC(=O)NCCO [Anandamide, arachidonylethanolamide]",–,relatively modest,blocked nitric oxide release
